Series [1] has as its target T1, Signal transducer and activator of transcription 5A (Homo sapiens, UniProt P42229).
T1 sequence (P42229 whole entry): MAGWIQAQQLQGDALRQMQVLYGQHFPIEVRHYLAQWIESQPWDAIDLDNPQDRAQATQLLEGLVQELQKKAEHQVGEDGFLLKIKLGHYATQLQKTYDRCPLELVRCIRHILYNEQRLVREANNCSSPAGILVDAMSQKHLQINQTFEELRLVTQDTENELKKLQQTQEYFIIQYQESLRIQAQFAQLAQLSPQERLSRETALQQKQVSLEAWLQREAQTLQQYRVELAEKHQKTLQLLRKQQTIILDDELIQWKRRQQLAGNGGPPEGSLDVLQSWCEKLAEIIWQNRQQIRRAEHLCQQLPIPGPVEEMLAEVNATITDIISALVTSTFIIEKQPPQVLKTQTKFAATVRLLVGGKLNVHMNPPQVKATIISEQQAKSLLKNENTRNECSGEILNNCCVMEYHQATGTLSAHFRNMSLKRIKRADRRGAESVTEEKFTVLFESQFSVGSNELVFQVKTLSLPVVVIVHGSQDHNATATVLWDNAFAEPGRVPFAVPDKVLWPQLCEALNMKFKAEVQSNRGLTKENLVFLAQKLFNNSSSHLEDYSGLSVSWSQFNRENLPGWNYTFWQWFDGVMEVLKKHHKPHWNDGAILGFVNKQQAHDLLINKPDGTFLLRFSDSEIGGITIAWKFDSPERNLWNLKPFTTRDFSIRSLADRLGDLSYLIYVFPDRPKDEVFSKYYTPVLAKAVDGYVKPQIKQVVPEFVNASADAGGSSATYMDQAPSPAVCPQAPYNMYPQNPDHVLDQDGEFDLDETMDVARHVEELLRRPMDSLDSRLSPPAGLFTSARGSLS
As to the kind of experiment: Induction of STAT5 degradation in human SKNO-1 cells measured for 18 hrs by Western blot analysis. The series is classed as cell-based. A general note: A western blot detects proteins with antibodies after separation by electrophoresis.

Series [2] relates to SKNO-1. In words: Effect on STAT1 level in human SKNO-1 cells upto 5 uM measured for 18 hrs by Western blot analysis. In kind it is functional, cell-based.
Series [3] deals with SKNO-1. As to the kind of experiment: Effect on STAT2 level in human SKNO-1 cells upto 5 uM measured for 18 hrs by Western blot analysis. In kind it is functional, cell-based.
The test system of series [4] is MV4-11. As to the kind of experiment: Effect on STAT1 level in human MV4-11 cells upto 5 uM measured for 18 hrs by Western blot analysis. The series is classed as functional, cell-based.
Series [5] has as its system MV4-11. As to the kind of experiment: Effect on STAT2 level in human MV4-11 cells upto 5 uM measured for 18 hrs by Western blot analysis. The series is classed as functional, cell-based.
Series [6] concerns MV4-11. As to the kind of experiment: Effect on STAT6 level in human MV4-11 cells upto 5 uM measured for 18 hrs by Western blot analysis. In kind it is functional, cell-based.
For series [7], the system named is RS4-11. As to the kind of experiment: Antiproliferative activity against human RS4-11 cells assessed as cell growth inhibition measured for 4 days by celltiter-glo assay. The settings on record: RS4-11, 96 h.
Series [8] in a line: Antiproliferative activity against human OCI-M2 cells assessed as cell growth inhibition measured for 4 days by celltiter-glo assay. Particulars: OCI-M2, 96 h. (In ATP-based viability assays light output follows the ATP content of the culture.)
Series [9] relates to MV4-11. In words: Antiproliferative activity against human MV4-11 cells assessed as maximal cell growth inhibition measured for 4 days by celltiter-glo assay relative to control. In kind it is functional. The settings on record: time 4 day.
Series [10] relates to RS4-11. In words: Antiproliferative activity against human RS4-11 cells assessed as maximal cell growth inhibition measured for 4 days by celltiter-glo assay relative to control. The series is classed as functional. The settings on record: time 4 day.
The nature of series [11]: Antiproliferative activity against human OCI-M2 cells assessed as maximal cell growth inhibition measured for 4 days by celltiter-glo assay relative to control. The series is classed as functional. The settings on record: time 4 day.
The next series concerns MOLM-13. In words: Antiproliferative activity against human MOLM-13 cells assessed as maximal cell growth inhibition measured for 4 days by celltiter-glo assay relative to control. The series is classed as functional. The settings on record: time 4 day.
The next series concerns HL-60. As to the kind of experiment: Antiproliferative activity against human HL-60 cells assessed as maximal cell growth inhibition measured for 4 days by celltiter-glo assay relative to control. Particulars: time 4 day. The series is classed as functional.
The nature of series [12]: Clearance in SCID mouse at 150 mg/kg, ip. Particulars: in vivo. The series is classed as ADME, organism-based.
Series [13] can be described thus: Apparent volume of distribution in SCID mouse at 150 mg/kg, ip. Particulars: in vivo. The series is classed as ADME, organism-based.
Series [14] in a line: In vivo induction of degradation of STAT5 in human MV4-11 cells xenografted in SCID mouse assessed as reduction in STAT5 phosphorylation at Y694 residue at 150 mg/kg, ip measured at 24 hrs by immunoblotting analysis. The series is classed as functional. Further details: scale not given: the % may be the effect or the level left. Background: Xenograft models place foreign cells or tissue in a host animal.

Series [15] in a line: In vivo induction of degradation of STAT5 in human MV4-11 cells xenografted in SCID mouse assessed as reduction in STAT5 levels at 150 mg/kg, ip measured at 1 to 24 hrs by immunoblotting analysis. In kind it is functional. Details: scale not given: the % may be the effect or the level left. Particulars: time 1-24 hrs.
The nature of series [16]: In vivo induction of degradation of STAT5 in human MV4-11 cells xenografted in SCID mouse assessed as reduction in STAT5 phosphorylation at Y694 residue at 150 mg/kg, ip measured at 1 to 24 hrs by immunoblotting analysis. The settings on record: time 1-24 hrs. In kind it is functional. Details: scale not given: the % may be the effect or the level left.
Series [17] is described as follows: Toxicity in SCID mouse assessed as effect on sign of illness at 50 to 200 mg/kg, ip administered 5 days a week for 3 weeks. In kind it is organism-based. The settings on record: in vivo, 120 h, dose 50-200 mg/kg, time 5 day.
The target of series [18] is T2, STAT5A/STAT5B (Homo sapiens, UniProt P42229+P51692).
T2 sequence (P42229 whole entry): T1 sequence (P42229 whole entry)
T2 sequence (P51692 whole entry): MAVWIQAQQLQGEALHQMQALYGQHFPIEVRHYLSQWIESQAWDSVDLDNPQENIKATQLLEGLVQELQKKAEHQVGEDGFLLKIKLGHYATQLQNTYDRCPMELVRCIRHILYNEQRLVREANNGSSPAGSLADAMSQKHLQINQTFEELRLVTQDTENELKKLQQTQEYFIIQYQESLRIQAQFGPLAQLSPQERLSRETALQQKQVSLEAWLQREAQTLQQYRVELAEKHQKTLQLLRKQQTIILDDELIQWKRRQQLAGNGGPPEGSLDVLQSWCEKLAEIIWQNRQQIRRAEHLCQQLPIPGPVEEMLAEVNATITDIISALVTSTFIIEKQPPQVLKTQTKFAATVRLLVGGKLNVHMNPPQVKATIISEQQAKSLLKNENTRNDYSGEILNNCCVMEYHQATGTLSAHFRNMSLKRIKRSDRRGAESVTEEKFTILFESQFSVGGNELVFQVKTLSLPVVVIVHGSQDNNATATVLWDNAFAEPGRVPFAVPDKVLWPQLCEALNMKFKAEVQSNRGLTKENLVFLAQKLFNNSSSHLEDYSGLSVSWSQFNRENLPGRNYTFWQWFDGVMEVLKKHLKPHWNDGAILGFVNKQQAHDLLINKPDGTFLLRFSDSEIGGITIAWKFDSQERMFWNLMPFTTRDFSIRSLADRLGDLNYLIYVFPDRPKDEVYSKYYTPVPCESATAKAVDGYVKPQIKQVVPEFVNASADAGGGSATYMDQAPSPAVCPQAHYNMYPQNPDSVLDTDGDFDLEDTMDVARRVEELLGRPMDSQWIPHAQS
In words: Induction of STAT5A/5B degradation in human MV4-11 cells measured for 6 hrs by immunoblotting analysis. The series is classed as cell-based.

The target in series [19] is T2, STAT5A/STAT5B. In words: Induction of STAT5A/5B degradation in human Kasumi-3 cells measured for 18 hrs by immunoblotting analysis. The series is classed as cell-based.

pIC50: −log10 of the molar value. Calls of active or inactive are those of the source. The rule behind the calls is not given here.

What is called DC50 is the concentration at which degradation of the target reaches its halfway point. The term pIC50 denotes the IC50 on a negative log10 scale, so that one unit is a factor of ten. Broadly, the CL/F is the apparent clearance, not corrected for the fraction that reaches the circulation. Regarding `CN(CCCC#Cc1cccc2c1CN(C1CCC(=O)NC1=O)C2=O)C(=O)CCN(C(=O)[C@@H]1CCCN1C(=O)[C@@H](NC(=O)c1cc2cc(C(F)(F)P(=O)(O)O)ccc2s1)C(C)(C)C)c1ccc(-c2nccs2)cc1` (stereo partly specified), the values for the 50% degradation concentration (DC50) (in series [1]; on STAT5A/STAT5B [18]; at STAT5A/STAT5B [19]) were 100 nM, 50 nM and 180 nM, respectively. Also, the result in the series with SKNO-1 [2], in the series on SKNO-1 [3], in the series on MV4-11 [4], in the series on MV4-11 [5] and in the series with MV4-11 [6] was inactive. Moreover, the negative-log IC50 (pIC50) (with RS4-11 [7]; in series [8]) was < 4.82 throughout. Moreover, the Imax is given as 65% in the series with MV4-11 [9]; <5% in the series on RS4-11 [10]; <5% in [11]; <5% in the series with MOLM-13; <5% in the series with HL-60. This compound also had a CL/F in series [12] of 12.8 mL/min/kg. Also, the Vz in [13] stood at 2.1 L/kg. Also, the Activity was >70% in series [14], >95% in series [15], >95% in [16] and “Non-Toxic” in series [17].

The record behind these values is ChEMBL document CHEMBL5380794, “Discovery of a Potent and Selective STAT5 PROTAC Degrader with Strong Antitumor Activity In Vivo in Acute Myeloid Leukemia” (J Med Chem, 2023).
